Experimental data from patent US9125913B2, “Bcl-2-selective apoptosis-inducing agents for the treatment of cancer and immune diseases” (AbbVie Inc., priority 2008, dated 2015).

System: GST-Bcl-2
Experiment: TR-FRET binding assay, Bcl-2
Details: TR-FRET Ki values
How it was run: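 Ki values come from Wang's competitive-binding equation applied to TR-FRET signal (excitation 340/35 nm; emission 520/525 nm F-Bak peptide, 495/510 nm Tb antibody). Protein, probe and antibody incubated with compound 3 h at room temperature; dilution series began at 50 μM as 2× stock in 10% DMSO.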

Structure (SMILES) | Binding selectivity ratio (Bcl-XL Ki/Bcl-2 Ki)
CC1(C)CCC(CN2CCN(c3ccc(C(=O)NS(=O)(=O)c4ccc(NCC(F)(F)F)c([N+](=O)[O-])c4)c(Oc4cccc5[nH]ccc45)c3)CC2)=C(c2ccc(Cl)cc2)C1 [EXAMPLE 343, 4-(4-{[2-(4-chlorophenyl)-4,4-dimethylcyclohex-1-en-1-yl]methyl}piperazin-1-yl)-2-(1H-indol-4-yloxy)-N-({3-nitro-4-[(2,2,2-trifluoroethyl)amino]phenyl}sulfonyl)benzamide] | >1145.9
O=C(NS(=O)(=O)c1ccc(-n2ncc([N+](=O)[O-])n2)cc1)c1ccc(N2CCN(Cc3ccccc3-c3ccc(Cl)cc3)CC2)cc1Oc1ccccc1 [Example 31, 4-{4-[(4′-chloro-1,1′-biphenyl-2-yl)methyl]piperazin-1-yl}-N-{[4-(4-nitro-2H-1,2,3-triazol-2-yl)phenyl]sulfonyl}-2-phenoxybenzamide] | >18.0
CN1CCC(O)(CCNc2ccc(S(=O)(=O)NC(=O)c3ccc(N4CCN(CC5=C(c6ccc(Cl)cc6)CC(C)(C)CC5)CC4)cc3Oc3ccc4[nH]ccc4c3)cc2[N+](=O)[O-])CC1 [EXAMPLE 211, 4-(4-{[2-(4-chlorophenyl)-4,4-dimethylcyclohex-1-en-1-yl]methyl}piperazin-1-yl)-N-[(4-{[2-(4-hydroxy-1-methylpiperidin-4-yl)ethyl]amino}-3-nitrophenyl)sulfonyl]-2-(1H-indol-5-yloxy)benzamide] | 651.1
CC1(C)CCC(CN2CCN(c3ccc(C(=O)NS(=O)(=O)c4ccc(NC5CCN(CC6CC6)CC5)c([N+](=O)[O-])c4)c(Oc4ccc5[nH]ccc5c4)c3)CC2)=C(c2ccc(Cl)cc2)C1 [EXAMPLE 214, 4-(4-{[2-(4-chlorophenyl)-4,4-dimethylcyclohex-1-en-1-yl]methyl}piperazin-1-yl)-N-[(4-{[1-(cyclopropylmethyl)piperidin-4-yl]amino}-3-nitrophenyl)sulfonyl]-2-(1H-indol-5-yloxy)benzamide] | 776.6
CC1(C)CCC(CN2CCN(c3ccc(C(=O)NS(=O)(=O)c4cnc(OCC5CCC(F)(F)CC5)c(Cl)c4)c(Oc4cccc5[nH]cnc45)c3)CC2)=C(c2ccc(Cl)cc2)C1 [EXAMPLE 463, 2-(1H-benzimidazol-4-yloxy)-N-({5-chloro-6-[(4,4-difluorocyclohexyl)methoxy]pyridin-3-yl}sulfonyl)-4-(4-{[2-(4-chlorophenyl)-4,4-dimethylcyclohex-1-en-1-yl]methyl}piperazin-1-yl)benzamide] | 6043
CC1(C)CCC(CN2CCN(c3ccc(C(=O)NS(=O)(=O)c4ccc(NCC5(N)CCOCC5)c([N+](=O)[O-])c4)c(Oc4cccc5[nH]ccc45)c3)CC2)=C(c2ccc(Cl)cc2)C1 [Example 176, N-[(4-{[(4-aminotetrahydro-2H-pyran-4-yl)methyl]amino}-3-nitrophenyl)sulfonyl]-4-(4-{[2-(4-chlorophenyl)-4,4-dimethylcyclohex-1-en-1-yl]methyl}piperazin-1-yl)-2-(1H-indol-4-yloxy)benzamide] | 177.8
CC1(C)CCC(CN2CCN(c3ccc(C(=O)NS(=O)(=O)c4ccc(NCC5CCOC5)c([N+](=O)[O-])c4)c(Oc4cccc5[nH]cnc45)c3)CC2)=C(c2ccc(Cl)cc2)C1 (stereo not shown) [EXAMPLE 439, 2-(1H-benzimidazol-4-yloxy)-4-(4-{[2-(4-chlorophenyl)-4,4-dimethylcyclohex-1-en-1-yl]methyl}piperazin-1-yl)-N-({3-nitro-4-[(tetrahydrofuran-3-ylmethyl)amino]phenyl}sulfonyl)benzamide] | 1496.8
CC1(C)CCC(CN2CCN(c3ccc(C(=O)NS(=O)(=O)c4cnc(O[C@@H]5CCN(C(CF)CF)C5)c(Cl)c4)c(Oc4cccc5[nH]ncc45)c3)CC2)=C(c2ccc(Cl)cc2)C1 [EXAMPLE 434, N-{[5-chloro-6-({(3R)-1-[2-fluoro-1-(fluoromethyl)ethyl]pyrrolidin-3-yl}oxy)pyridin-3-yl]sulfonyl}-4-(4-{[2-(4-chlorophenyl)-4,4-dimethylcyclohex-1-en-1-yl]methyl}piperazin-1-yl)-2-(1H-indazol-4-yloxy)benzamide] | 1459
CC1(C)CCC(CN2CCN(c3ccc(C(=O)NS(=O)(=O)c4ccc(OCC5CCOCC5)c([N+](=O)[O-])c4)c(Oc4ccc5[nH]ccc5c4)c3)CC2)=C(c2ccc(Cl)cc2)C1 [EXAMPLE 279, 4-(4-{[2-(4-chlorophenyl)-4,4-dimethylcyclohex-1-en-1-yl]methyl}piperazin-1-yl)-2-(1H-indol-5-yloxy)-N-{[3-nitro-4-(tetrahydro-2H-pyran-4-ylmethoxy)phenyl]sulfonyl}benzamide] | >6923.2
CC1(C)CCC(CN2CCN(c3ccc(C(=O)NS(=O)(=O)c4ccc(NCC5CCC(F)(F)CC5)c([N+](=O)[O-])c4)c(Oc4cccc5[nH]cnc45)c3)CC2)=C(c2ccc(Cl)cc2)C1 [EXAMPLE 456, 2-(1H-benzimidazol-4-yloxy)-4-(4-{[2-(4-chlorophenyl)-4,4-dimethylcyclohex-1-en-1-yl]methyl}piperazin-1-yl)-N-[(4-{[(4,4-difluorocyclohexyl)methyl]amino}-3-nitrophenyl)sulfonyl]benzamide] | 53.991
CN1CCC(Nc2ccc(S(=O)(=O)NC(=O)c3ccc(N4CCN(CC5=C(c6ccc(Cl)cc6)CCC(O)C5)CC4)cc3Oc3ccc4[nH]ccc4c3)cc2[N+](=O)[O-])CC1 (stereo not shown) [EXAMPLE 224, 4-(4-{[2-(4-chlorophenyl)-5-hydroxycyclohex-1-en-1-yl]methyl}piperazin-1-yl)-2-(1H-indol-5-yloxy)-N-({4-[(1-methylpiperidin-4-yl)amino]-3-nitrophenyl}sulfonyl)benzamide] | >99.9
CN1CC[C@H](Nc2ccc(S(=O)(=O)NC(=O)c3ccc(N4CCN(CC5=C(c6ccc(Cl)cc6)CC(C)(C)CC5)CC4)cc3Oc3ccc4[nH]ccc4c3)cc2[N+](=O)[O-])C1 [EXAMPLE 234, 4-(4-{[2-(4-chlorophenyl)-4,4-dimethylcyclohex-1-en-1-yl]methyl}piperazin-1-yl)-2-(1H-indol-5-yloxy)-N-[(4-{[(3S)-1-methylpyrrolidin-3-yl]amino}-3-nitrophenyl)sulfonyl]benzamide] | 66.3
CC1(C)CCC(CN2CCN(c3ccc(C(=O)NS(=O)(=O)c4ccc(NN5CCCCC5)c([N+](=O)[O-])c4)c(Oc4ccc5[nH]ccc5c4)c3)CC2)=C(c2ccc(Cl)cc2)C1 [EXAMPLE 284, 4-(4-{[2-(4-chlorophenyl)-4,4-dimethylcyclohex-1-en-1-yl]methyl}piperazin-1-yl)-2-(1H-indol-5-yloxy)-N-{[3-nitro-4-(piperidin-1-ylamino)phenyl]sulfonyl}benzamide] | >425.2
CN1CCN(c2ccc(S(=O)(=O)NC(=O)c3ccc(N4CCN(CC5=C(c6ccc(Cl)cc6)CC(C)(C)CC5)CC4)cc3Oc3ccc4[nH]ccc4c3)cc2[N+](=O)[O-])CC1 [Example 107, 4-(4-{[2-(4-chlorophenyl)-4,4-dimethylcyclohex-1-en-1-yl]methyl}piperazin-1-yl)-2-(1H-indol-5-yloxy)-N-{[4-(4-methylpiperazin-1-yl)-3-nitrophenyl]sulfonyl}benzamide] | 62.5
CC1(C)CCC(CN2CCN(c3ccc(C(=O)NS(=O)(=O)c4ccc(N[C@H]5CC[C@H](N6CCOCC6)CC5)c([N+](=O)[O-])c4)c(Oc4cccc5[nH]cnc45)c3)CC2)=C(c2ccc(Cl)cc2)C1 [EXAMPLE 452, Trans-2-(1H-benzimidazol-4-yloxy)-4-(4-{[2-(4-chlorophenyl)-4,4-dimethylcyclohex-1-en-1-yl]methyl}piperazin-1-yl)-N-({4-[(4-morpholin-4-ylcyclohexyl)amino]-3-nitrophenyl}sulfonyl)benzamide] | 600.39
COCCNc1ccc(S(=O)(=O)NC(=O)c2ccc(N3CCN(CC4=C(c5ccc(Cl)cc5)CC(C)(C)CC4)CC3)cc2Oc2ccc3[nH]ccc3c2)cc1[N+](=O)[O-] [Example 179, 4-(4-{[2-(4-chlorophenyl)-4,4-dimethylcyclohex-1-en-1-yl]methyl}piperazin-1-yl)-2-(1H-indol-5-yloxy)-N-({4-[(2-methoxyethyl)amino]-3-nitrophenyl}sulfonyl)benzamide] | >3642.4
CC1(C)CCC(CN2CCN(c3ccc(C(=O)NS(=O)(=O)c4ccc(N[C@@H]5CCN(CC(F)F)C5)c([N+](=O)[O-])c4)c(Oc4cccc5[nH]cnc45)c3)CC2)=C(c2ccc(Cl)cc2)C1 [EXAMPLE 407, 2-(1H-benzimidazol-4-yloxy)-4-(4-{[2-(4-chlorophenyl)-4,4-dimethylcyclohex-1-en-1-yl]methyl}piperazin-1-yl)-N-[(4-{[(3R)-1-(2,2-difluoroethyl)pyrrolidin-3-yl]amino}-3-nitrophenyl)sulfonyl]benzamide] | 4931
COCCN1CCC(Nc2ccc(S(=O)(=O)NC(=O)c3ccc(N4CCN(CC5=C(c6ccc(Cl)cc6)CC(C)(C)CC5)CC4)cc3Oc3ccc4[nH]ccc4c3)cc2[N+](=O)[O-])CC1 [EXAMPLE 189, 4-(4-{[2-(4-chlorophenyl)-4,4-dimethylcyclohex-1-en-1-yl]methyl}piperazin-1-yl)-2-(1H-indol-5-yloxy)-N-[(4-{[1-(2-methoxyethyl)piperidin-4-yl]amino}-3-nitrophenyl)sulfonyl]benzamide] | 358.6
CN(C)CCOc1cccc(-c2ccc(Cl)cc2)c1CN1CCN(c2ccc(C(=O)NS(=O)(=O)c3ccc(NC4CCN(C)CC4)c([N+](=O)[O-])c3)c(Oc3cccc4[nH]ccc34)c2)CC1 [EXAMPLE 205, 4-[4-({4′-chloro-3-[2-(dimethylamino)ethoxy]-1,1′-biphenyl-2-yl}methyl)piperazin-1-yl]-2-(1H-indol-4-yloxy)-N-({4-[(1-methylpiperidin-4-yl)amino]-3-nitrophenyl}sulfonyl)benzamide] | 658.6
